From publication PMC4805251, “Novel Antimicrobial Peptides EeCentrocins 1, 2 and EeStrongylocin 2 from the Edible Sea Urchin Echinus esculentus Have 6-Br-Trp Post-Translational Modifications” (PLoS ONE, 2016) come the findings set out here.

Holding throughout (format): cell-based
Test [1] has as its system Pseudomonas aeruginosa #1 (ATCC 27853). The method, boiled down: (§1)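 Broth microdilution in Müller-Hinton, 1.3–1.5 × 10^4 bacteria/ml final, 24 h at 35°C with hourly OD595. MIC is the lowest concentration giving >90% inhibition versus water growth controls; extracts/eluates tested 5.0–0.005 mg/ml, peptides 100–0.1 μM in two-fold dilutions, HPLC fractions undiluted.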
The test system of test [2] is Escherichia coli #1 (ATCC 25922). In outline:
as §1

The subject of test [3] is Staphylococcus aureus (ATCC 9144). In outline: as §1
Test [4] has as its system Bacillus subtilis (ATCC 23857). In outline:
as §1

Test [5] concerns Corynebacterium glutamicum (ATCC 13032). The method, boiled down: as §1
The test system of test [6] is S. epidermidis #2, RP62A (ATCC 35984). In outline:
as §1

[7] abbreviates: MH medium, 24 h at 35°C, OD595, >90% inhibition, value of Table 2, native peptides run once, synthetic in triplicates.
The mark [8] stands for this setting: MH medium, 24 h at 35°C, OD595, lowest concentration with >90% inhibition, value of Table 2, native peptides run once, synthetic in triplicates.

Where two headings read alike, the source gives them in different places. Ends that are not written are not given here.

“WGHKLRSSWNKVKHAVKKGAGYASGACRVLGH [EeCentrocin 2 HC]”: the “MIC P. aeruginosa #1” value in test [1] (setting [7]) was found to be 0.78 µM. Also, the “MIC raw data P. aeruginosa #1” value in test [1] (parallel 1 of three), in test [1] (parallel 2 of three) and in test [1] (parallel 3 of three) was 0.78 µM in each case. Besides, the “MIC E. coli #1” value in test [2] (setting [7]) is 1.56 µM. The “MIC raw data E. coli #1” value is recorded as 1.56 µM in test [2] (parallel 1 of three), 0.78 µM in test [2] (parallel 2 of three) and 0.78 µM in test [2] (parallel 3 of three). Further, the “MIC S. aureus” value in test [3] (setting [8]) amounted to 6.25 µM. For the same sequence, the “MIC raw data S. aureus” value in test [3] (parallel 1 of three), in test [3] (parallel 2 of three) and in test [3] (parallel 3 of three) was 6.25 µM throughout. For the same sequence, the “MIC B. subtilis” value in test [4] (MH medium, 24 h at 35°C, OD595, lowest concentration with >90% inhibition, value of Table 2, synthetic peptides in triplicates) was 6.25 µM. The “MIC raw data B. subtilis” value in test [4] (parallel 1 of three) worked out at 6.25 µM; in test [4] (parallel 2 of three) it was 3.13 µM; in test [4] (parallel 3 of three), 3.13 µM. Besides, in test [5] (setting [8]), the “MIC C. glutamicum” value is 0.78 µM. Moreover, the “MIC raw data C. glutamicum” value in test [5] (parallel 1 of three), in test [5] (parallel 2 of three) and in test [5] (parallel 3 of three) was 0.78 µM throughout. For the same sequence, the “MIC S. epidermidis #2” value in test [6] (MH medium, 24 h at 35°C, OD595, >90% inhibition, value of Table 2, triplicates) stood at 3.13 µM. For the same sequence, the “MIC raw data S. epidermidis #2” value in test [6] (parallel 1 of three), in test [6] (parallel 2 of three) and in test [6] (parallel 3 of three) was 3.13 µM throughout.
